{"source": "patent US12419869B2", "about": "“Methods of treating multiple sclerosis” (Vanda Pharmaceuticals Inc., priority 2021, dated 2025)", "format_in_all_cases": "in vivo, human", "key": {"[1]": {"test_system": "adult subjects with relapsing MS", "test": "Brain MRI lesions (CUAL, Gd+ T1, new/enlarging T2) from baseline to Week 108", "details": "for CUAL mean estimate (Lesions per year): baseline to Week 108, negative binomial regression, Full Analysis Set", "experimental": "CUAL are new Gd+T1 lesions plus new or enlarging T2 lesions (without double-counting of lesions).\nMRI scans were performed at Visits 2 (Baseline), 10 (Week 60), and 14 (EOT) and at any unscheduled visit (U1, U2, etc.). If applicable, MRI scans also were performed at the corresponding visits in the PTOP (Visits 10A and 14A). Testing at all visits were performed up to 7 days prior to or after the visit date.\nMRI variables included the number and volume of new and total Gd+ lesions on T1-weighted MRI scans, number of new and enlarging lesions and lesion volume on T2-weighted MRI, and global measures of loss of brain tissue.\nT1-weighted imaging before and after i.v. administration of 0.1 mmol/kg body weight (=0.2 mL/kg) of Gd as well as PD-T2-weighted imaging was performed. Gd may cause nausea and vomiting and in very rare cases allergic reactions that could require immediate anti-anaphylactic therapy (such as steroids, epinephrine/adrenaline, etc.).\nPatients (18-55 years) with RMS (expanded disability status scale scores: 0-5.5) were randomized (1:1) to receive ponesimod (PON) 20 mg or teriflunomide (TER) 14 mg for 108 weeks. MRI assessments were: volume of T2 lesions; mean number of new gadolinium-enhancing (Gd+) T1 lesions and new/enlarging T2 lesions; and absence of active MRI lesions at week 108. NEDA-3 status (absence of confirmed relapse, Gd+T1 lesions and new/enlarging T2 lesions on annual MRIs, and 12-week confirmed disability accumulation) was evaluated from baseline to week 108."}, "[2]": {"test_system": "adult subjects with relapsing MS", "test": "Confirmed relapses / annualized relapse rate up to EOS, phase III study ponesimod 20 mg vs teriflunomide 14 mg", "details": "for Mean estimate (ARR), confirmed relapses up to EOS: negative binomial regression, teriflunomide 14 mg, ponesimod 20 mg; for Percentage of patients without relapse: study period of approximately 108 weeks", "experimental": "Primary efficacy variable/primary timepoint: The primary endpoint was annualized relapse rate (ARR) up to the end of study (EOS) defined as the number of confirmed relapses per subject-year. All available data up to EOS, regardless of treatment discontinuation was included (ITT approach).\nThe primary statistical analysis of the ARR endpoint was performed on the FAS using a negative binomial model for confirmed relapses, with the stratification variables prior use of disease-modifying therapies (DMTs) and EDSS category as well as the number of relapses in the year prior to study entry, included in the model and time in the study as an offset variable. Sensitivity analyses was performed on the PPS and also based on different subgroups derived from baseline variables.\nA relapse is defined as new, worsening or recurrent neurological symptoms that occur at least 30 days after the onset of a preceding relapse, and that last at least 24 hours, in the absence of fever or infection.\nA relapse was confirmed by the treating neurologist only when the subjects' symptoms were accompanied by an increase in EDSS/FS (functional system) scores, which were consistent with the subject's symptoms, from a previous clinically stable EDSS/FS assessment (i.e., performed at least 30 days after the onset of any previous relapse), obtained by the efficacy assessor and consistent with the following: • An increase of at least half a step (0.5 points; unless EDSS=0, then an increase of at least 1.0 points is required) or • An increase of at least 1.0 point in at least two FS scores, or • An increase of at least 2.0 points in at least one FS score (excluding bladder/bowel and cerebral).\nThe primary statistical analysis was performed up to EOS on the FAS using a negative binomial regression model for confirmed relapses, with treatment as a factor and the binary stratification variables (EDSS≤3.5 versus EDSS>3.5; DMTs within last 2 years prior to randomization [Yes/No]) and the number of relapses in the year prior to study entry (categories≤1 (or missing) and […]) included in the model. The model also included an offset variable defined as the log of time on study (in years) from randomization up to EOS."}, "[3]": {"test_system": "adult subjects with relapsing MS", "test": "Blood pressure, Study 1", "details": "for Average increase in diastolic blood pressure / Average increase in systolic blood pressure: Study 1", "experimental": "An increase in blood pressure with PONVORY was first detected after approximately 1 month of treatment initiation and persisted with continued treatment. Hypertensive events were reported as an adverse reaction in 10.1% of PONVORY-treated patients and in 9.0% of patients receiving teriflunomide 14 mg. One patient treated with PONVORY experienced a hypertensive crisis but had evidence of longstanding hypertensive heart disease. Blood pressure should be monitored during treatment with PONVORY and managed appropriately."}, "[4]": {"test_system": "adult subjects with relapsing MS", "test": "12-lead ECG heart rate and AV conduction at treatment initiation (Day 1, ponesimod 2 mg)", "experimental": "As per up-titration regimen, the dose of ponesimod on Day 1 is 2 mg.\nThe incidence of treatment-emergent heart rate and rhythm (including hypotension) AESIs on Day 1 was higher in the ponesimod 20 mg arm (2.1%) than in the teriflunomide 14 mg arm (0.4%). However, the overall incidence of first dose AESI on Day 1 was low (2.1%) in ponesimod. None of these events were serious nor led to permanent discontinuation of study treatment. Discharge criteria at 4 hours post-dose were met for ca. 99% of subjects. […] ECG HR effect: nadir at 2 hours post-dose (siponimod—3-4 hours, fingolimod—around by 6 hours). Low incidence of low HR outliers (post-dose HR 40 bpm), all 3 of them with a pre-treatment HR of <55 bpm, which is a known risk factor for post-dose bradycardia with SIP receptor modulators.\nThe mean heart rate reduction compared to pre-dose reached a maximum for ponesimod 20 mg at 2-hours post dose, −8.7 bpm compared to −1.7 bpm for teriflunomide 14 mg (FIG. 6).\nInitiation of PONVORY may result in a transient decrease in HR. In Study 1, bradycardia at treatment initiation and sinus bradycardia on ECG (defined as HR less than 50 bpm) occurred in 5.8% of PONVORY-treated patients compared to 1.6% of patients receiving teriflunomide 14 mg. After the first titration dose of PONVORY, the decrease in heart rate typically begins within an hour and reaches its nadir within 2-4 hours. The heart rate typically recovers to baseline levels 4-5 hours after administration. The mean decrease in heart rate on Day 1 of dosing was 6 bpm. With up-titration after Day 1, the post-dose decrease in heart rate is less pronounced. […] On Day 1, 3 patients treated with PONVORY had asymptomatic post-dose HR below or equal to 40 bpm; all 3 patients had baseline HRs below 55 bpm."}}, "note": "Where “and” joins values, the source holds several entries; their conditions need not be identical. Identical values can stand only once.", "data": [{"molecule": "C/C(O)=C(\\C#N)C(=O)Nc1ccc(C(F)(F)F)cc1", "note": "[Teriflunomide, reference compound]", "values": [{"measurement": "CUAL mean estimate (Lesions per year)", "setting": "[1]", "result": 3.164, "unit": "lesions per year"}, {"measurement": "Mean number of new Gd+ T1 lesions per scan / per MRI", "setting": "[1]; baseline to week 108", "result": 0.43}, {"measurement": "Mean estimate (ARR), confirmed relapses up to EOS", "setting": "[2]; Full Analysis Set", "result": 0.290}, {"measurement": "Percentage of patients without relapse", "setting": "[2]", "result": 60.6, "unit": "%"}, {"measurement": "Average increase in diastolic blood pressure", "setting": "[3]", "result": 3.1, "unit": "mm Hg"}, {"measurement": "Average increase in systolic blood pressure", "setting": "[3]", "result": 2.8, "unit": "mm Hg"}, {"measurement": "Mean heart rate change compared to pre-dose at 2 hours post dose (maximum)", "setting": "[4]; Day 1", "result": "−1.7", "unit": "bpm"}, {"measurement": "Subjects with asymptomatic post-dose HR ≤40 bpm", "setting": "[4]; Day 1", "result": "none"}, {"measurement": "Bradycardia at treatment initiation and sinus bradycardia on ECG (HR less than 50 bpm)", "setting": "[4]; Study 1", "result": 1.6, "unit": "%"}, {"measurement": "First-degree AV block (prolonged PR interval on ECG)", "setting": "[4]; Study 1", "result": 1.2, "unit": "%"}]}, {"molecule": "CCC/N=C1\\S/C(=C\\c2ccc(OC[C@H](O)CO)c(Cl)c2)C(=O)N1c1ccccc1C", "note": "[Ponesimod, (R)-5-[3-chloro-4-(2,3-dihydroxy-propoxy)-benz[Z]ylidene]-2-([Z]-propylimino)-3-o-tolyl-thiazolidin-4-one]", "values": [{"measurement": "CUAL mean estimate (Lesions per year)", "setting": "[1]", "result": 1.405, "unit": "lesions per year"}, {"measurement": "CUAL mean estimate (Lesions per year)", "setting": "[1]; listed as ponesimod", "result": 1.405, "unit": "lesions per year"}, {"measurement": "CUAL treatment effect (Rate Ratio) ponesimod vs teriflunomide", "setting": "[1]; baseline to week 108", "result": "0.444 and 0.44"}, {"measurement": "LS mean difference (PON-TER) in change from baseline in total volume of T2 lesions", "setting": "[1]; baseline to week 108", "result": "−399.2", "unit": "mm^3"}, {"measurement": "Mean number of new Gd+ T1 lesions per scan / per MRI", "setting": "[1]; baseline to week 108", "result": 0.18}, {"measurement": "Mean number of new/enlarging T2 lesions per year", "setting": "[1]; baseline to week 108", "result": 1.40}, {"measurement": "Rate ratio, new Gd+ T1 lesions per scan, PON vs TER", "setting": "[1]; baseline to week 108", "result": 0.42}, {"measurement": "Rate ratio, new/enlarging T2 lesions per year, PON vs TER", "setting": "[1]; baseline to week 108", "result": 0.44}, {"measurement": "Raw mean lesions/year (CUAL)", "setting": "[1]; baseline to week 108", "result": 1.559, "unit": "lesions/year"}, {"measurement": "Reduction of number of CUALs compared to teriflunomide 14 mg", "setting": "[1]; baseline to week 108", "result": 56, "unit": "%"}, {"measurement": "Total number of lesions (CUAL)", "setting": "[1]; baseline to week 108", "result": 1671}, {"measurement": "Relative reduction, T1 Gd-enhancing lesions per MRI", "setting": "[1]; vs teriflunomide 14 mg", "result": "58.5% (p < 0001)"}, {"measurement": "Relative reduction, new or enlarging T2 hyperintense lesions per year", "setting": "[1]; vs teriflunomide 14 mg", "result": "55.7% (p < 0001)"}, {"measurement": "Odds ratio PON vs TER for absence of new Gd+ T1 lesions", "setting": "[1]; week 108", "result": 2.18}, {"measurement": "Odds ratio PON vs TER for absence of new/enlarging T2 lesions", "setting": "[1]; week 108", "result": 1.71}, {"measurement": "Raw ARR", "setting": "[2]; Full Analysis Set, up to EOS", "result": 0.216}, {"measurement": "Total number of relapses", "setting": "[2]; Full Analysis Set, up to EOS", "result": 242}, {"measurement": "Treatment effect (rate ratio) on ARR, ponesimod vs teriflunomide", "setting": "[2]; Full Analysis Set, up to EOS", "result": 0.695}, {"measurement": "Mean estimate (ARR), confirmed relapses up to EOS", "setting": "[2]; Full Analysis Set", "result": 0.202}, {"measurement": "Percentage of patients without relapse", "setting": "[2]", "result": 70.7, "unit": "%"}, {"measurement": "Relative reduction of ARR compared to teriflunomide 14 mg", "setting": "[2]; up to EOS", "result": 30.5, "unit": "%"}, {"measurement": "Average increase in diastolic blood pressure", "setting": "[3]", "result": 2.8, "unit": "mm Hg"}, {"measurement": "Average increase in systolic blood pressure", "setting": "[3]", "result": 2.9, "unit": "mm Hg"}, {"measurement": "Time after treatment initiation at which blood pressure increase was first detected", "setting": "[3]; in vivo", "result": "approximately 1 month"}, {"measurement": "Mean heart rate change compared to pre-dose at 2 hours post dose (maximum)", "setting": "[4]; Day 1", "result": "−8.7", "unit": "bpm"}, {"measurement": "Subjects meeting discharge criteria at 4 hours post-dose", "setting": "[4]; Day 1", "result": "ca. 99%"}, {"measurement": "Subjects with asymptomatic post-dose HR ≤40 bpm", "setting": "[4]; Day 1", "result": 3}, {"measurement": "Time for heart rate to recover to baseline / pre-dose values", "setting": "[4]; Day 1", "result": "4 to 5", "unit": "h"}, {"measurement": "ECG HR effect: time of nadir post-dose", "setting": "[4]; Day 1, 2 mg", "result": 2, "unit": "h"}, {"measurement": "Bradycardia at treatment initiation and sinus bradycardia on ECG (HR less than 50 bpm)", "setting": "[4]; Study 1", "result": 5.8, "unit": "%"}, {"measurement": "First-degree AV block (prolonged PR interval on ECG)", "setting": "[4]; Study 1", "result": 3.4, "unit": "%"}, {"measurement": "Mean decrease in heart rate on Day 1 of dosing", "setting": "[4]; Study 1", "result": 6, "unit": "bpm"}, {"measurement": "Second- and third-degree AV blocks", "setting": "[4]; Study 1", "result": "not reported"}, {"measurement": "Time to heart rate nadir / maximal effect after first dose", "setting": "[4]; post-dose", "result": "2 to 4", "unit": "h"}]}]}
